Data published in US12187701B2, “Taire family kinase inhibitors and uses thereof” (Dana-Farber Cancer Institute, Inc., priority 2018, dated 2025).

Legend:
Cdk14/CycY = Cdk14/CycY (Homo sapiens (Human), UniProt O94921); assay: Lanthascreen Eu kinase binding assay for Cdk14/CycY with 30 minute pre-incubation; conditions: 30 minute pre-incubation of kinase with compound; read-out: IC50 CDK14 binding by Lanthascreen
Description: Lanthascreen Eu kinase binding assays were conducted for Cdk14/CycY largely as performed in the commercial assay service by Life Technologies, but included a 30 minute pre-incubation step of the kinase with candidate compounds to facilitate covalent bond formation.

HCT116 cells = assay: Antiproliferation assay, Cell Titer Glo, 72 hours; format: cell-based; conditions: Homo sapiens, HCT-116, 72 h
Description: HCT116 cells were plated in 384-well plates at 750 cells/well in 50 ul fresh media (McCoy's 5A+10% FBS+1% Penn/Strep) and treated with 0.1 μl candidate compounds in four-fold dilution series using the Janus pinner. Cells were incubated with compounds for 72 hours in 37° C. 5% CO2. Anti-proliferative effects of these compounds were assessed 72 hours after compound addition using Cell Titer Glo (Promega cat #G7571) as described in product manual by luminescence measurements using an Envision platereader. All proliferation assays were performed in biological quadruplicate. IC50 values were determined using a non-linear regression curve fit in GraphPad Prism 6.

Chain of Cdk14/CycY (O94921 whole entry): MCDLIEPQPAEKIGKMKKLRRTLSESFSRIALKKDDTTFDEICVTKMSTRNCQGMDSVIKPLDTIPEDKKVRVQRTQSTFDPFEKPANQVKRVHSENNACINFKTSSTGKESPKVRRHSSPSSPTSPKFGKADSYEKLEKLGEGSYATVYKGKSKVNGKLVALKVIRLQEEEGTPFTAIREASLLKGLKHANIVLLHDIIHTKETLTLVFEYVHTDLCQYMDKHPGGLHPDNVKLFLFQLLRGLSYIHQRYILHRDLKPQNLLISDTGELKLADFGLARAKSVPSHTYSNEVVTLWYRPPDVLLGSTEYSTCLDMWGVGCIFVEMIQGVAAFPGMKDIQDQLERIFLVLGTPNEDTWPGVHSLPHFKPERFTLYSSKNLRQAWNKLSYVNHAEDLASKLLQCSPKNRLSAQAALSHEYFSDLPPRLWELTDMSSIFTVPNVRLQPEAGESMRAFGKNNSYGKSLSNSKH
Chain of Cdk14/CycY (Q8ND76 whole entry partner): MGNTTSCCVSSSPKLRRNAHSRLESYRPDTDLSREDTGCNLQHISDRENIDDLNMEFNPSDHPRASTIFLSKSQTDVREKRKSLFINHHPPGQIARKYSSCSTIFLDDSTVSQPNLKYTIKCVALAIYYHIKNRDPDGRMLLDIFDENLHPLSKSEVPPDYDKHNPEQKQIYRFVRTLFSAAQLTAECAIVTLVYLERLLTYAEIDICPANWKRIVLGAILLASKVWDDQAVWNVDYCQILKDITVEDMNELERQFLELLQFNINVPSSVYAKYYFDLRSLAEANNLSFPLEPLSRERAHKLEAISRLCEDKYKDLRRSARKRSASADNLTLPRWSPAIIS

| SMILES | IC50 (Cdk14/CycY) | IC50 (HCT116 cells) |
| --- | --- | --- |
| C=CC(=O)Nc1cccc(S(=O)(=O)N2CC[C@@H](NC(=O)c3n[nH]cc3NC(=O)c3c(Cl)cccc3Cl)C2)c1 [FMF-05-065-1, (R)-N-(1-((3-acrylamidophenyl)sulfonyl)pyrrolidin-3-yl)-4-(2,6-dichlorobenzamido)-1H-pyrazole-3-carboxamide] | > 10000 nM | 467 nM |
| C=CC(=O)Nc1ccc(N2CC[C@H](NC(=O)c3n[nH]cc3NC(=O)c3c(Cl)cccc3Cl)C2)cc1 [FMF-05-074-1, (S)—N-(1-(4-acrylamidophenyl)pyrrolidin-3-yl)-4-(2,6-dichlorobenzamido)-1H-pyrazole-3-carboxamide] | 1200 nM | 2900 nM |
| C=CC(=O)Nc1cccc(C(=O)N2CCC[C@@H](NC(=O)c3n[nH]cc3NC(=O)c3c(Cl)cccc3Cl)C2)c1 [FMF-04-059-1, (R)—N-(1-(3-acrylamidobenzoyl)piperidin-3-yl)-4-(2,6-dichlorobenzamido)-1H-pyrazole-3-carboxamide] | > 1000 nM | 4040 nM |
| CN(C)C/C=C/C(=O)Nc1cccc(CN2CCC(NC(=O)c3n[nH]cc3NC(=O)c3c(F)cccc3F)CC2)c1 [FMF-04-160-2, (E)-4-(2,6-difluorobenzamido)-N-(1-(3-(4-(dimethylamino)but-2-enamido)benzyl)piperidin-4-yl)-1H-pyrazole-3-carboxamide] | 223 nM | 437 nM |
| CN(C)C/C=C/C(=O)Nc1ccc(S(=O)(=O)N2CC[C@H](NC(=O)c3n[nH]cc3NC(=O)c3c(Cl)cccc3Cl)C2)cc1 [FMF-05-084-2, (S,E)-4-(2,6-dichlorobenzamido)-N-(1-((4-(4-(dimethylamino)but-2-enamido)phenyl)sulfonyl)pyrrolidin-3-yl)-1H-pyrazole-3-carboxamide] | 41 nM | > 10000 nM |
| CN(C)C/C=C/C(=O)Nc1cccc(C(=O)Nc2cccc(NC(=O)c3n[nH]cc3NC(=O)c3c(Cl)cccc3Cl)c2)c1 [FMF-04-196-1, (E)-4-(2,6-dichlorobenzamido)-N-(3-(3-(4-(dimethylamino)but-2-enamido)benzamido)phenyl)-1H-pyrazole-3-carboxamide] | 41 nM | 366 nM |
| CN(C)C/C=C/C(=O)N1CCC[C@@H](NC(=O)c2n[nH]cc2NC(=O)c2c(Cl)cccc2Cl)C1 [FMF-03-183-2, (R,E)-4-(2,6-dichlorobenzamido)-N-(1-(4-(dimethylamino)but-2-enoyl)piperidin-3-yl)-1H-pyrazole-3-carboxamide] | 148 nM | 157 nM |
| CN(C)C/C=C/C(=O)Nc1cccc(C(=O)N2CCC(NC(=O)c3n[nH]cc3NC(=O)c3c(Cl)cccc3Cl)CC2)c1 [FMF-03-196-2, (E)-4-(2,6-dichlorobenzamido)-N-(1-(3-(4-(dimethylamino)but-2-enamido)benzoyl)piperidin-4-yl)-1H-pyrazole-3-carboxamide] | 77 nM | 485 nM |
| C=CC(=O)Nc1cccc(S(=O)(=O)N2CCC(NC(=O)c3n[nH]cc3NC(=O)c3ccccc3)CC2)c1 [FMF-05-027-1, N-(1-((3-acrylamidophenyl)sulfonyl)piperidin-4-yl)-4-benzamido-1H-pyrazole-3-carboxamide] | 315 nM | 382 nM |
| CN(C)C/C=C/C(=O)N1CCC[C@H](NC(=O)c2n[nH]cc2NC(=O)c2c(Cl)cccc2Cl)C1 [FMF-03-184-2, (S,E)-4-(2,6-dichlorobenzamido)-N-(1-(4-(dimethylamino)but-2-enoyl)piperidin-3-yl)-1H-pyrazole-3-carboxamide] | 976 nM | 1340 nM |
| C=CC(=O)Nc1ccc(NC(=O)c2n[nH]cc2NC(=O)c2c(Cl)cccc2Cl)cc1 [FMF-03-182-1, N-(4-acrylamidophenyl)-4-(2,6-dichlorobenzamido)-1H-pyrazole-3-carboxamide] | > 1000 nM | 17 nM |
| C=CC(=O)Nc1ccc(C(=O)Nc2cccc(NC(=O)c3n[nH]cc3NC(=O)c3c(Cl)cccc3Cl)c2)cc1 [FMF-03-203-1, N-(3-(4-acrylamidobenzamido)phenyl)-4-(2,6-dichlorobenzamido)-1H-pyrazole-3-carboxamide] | 609 nM | 6 nM |
